Laboratory results reported in article PMC8399901, “Effects of a Peripherally Restricted Hybrid Inhibitor of CB1 Receptors and iNOS on Alcohol Drinking Behavior and Alcohol-Induced Endotoxemia” (Molecules, 2021).

Key:
CB1R [1] = molecular target: T1, CB1R (Mus musculus, UniProt P47746); experiment: CP 55,940-induced hypothermia in mice; assay type: in vivo; details: CP55,940 0.1–3 mg/kg i.p.
T1 construct: from tissue; host or cells: living C57BL/6J mice (whole animal; brain and peripheral tissues)
T1 sequence (P47746 whole entry): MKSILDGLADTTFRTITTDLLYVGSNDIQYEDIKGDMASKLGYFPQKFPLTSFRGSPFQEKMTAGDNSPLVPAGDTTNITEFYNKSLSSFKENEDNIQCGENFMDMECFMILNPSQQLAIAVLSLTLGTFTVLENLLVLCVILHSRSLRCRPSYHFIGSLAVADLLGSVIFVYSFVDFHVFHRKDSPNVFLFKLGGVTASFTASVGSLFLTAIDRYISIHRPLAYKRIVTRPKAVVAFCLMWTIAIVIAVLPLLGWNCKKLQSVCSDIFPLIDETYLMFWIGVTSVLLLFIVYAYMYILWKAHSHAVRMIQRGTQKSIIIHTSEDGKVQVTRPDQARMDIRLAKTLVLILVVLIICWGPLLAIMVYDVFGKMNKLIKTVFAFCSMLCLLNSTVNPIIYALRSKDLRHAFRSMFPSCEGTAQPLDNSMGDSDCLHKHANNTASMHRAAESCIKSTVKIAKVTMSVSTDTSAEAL
Procedure: (§1) Drugs were applied in a volume of 1 μL over the course of 2 min via 33 g internal injector (P1 Technologies, Roanoke, VA, USA) connected with the 2 µL precision glass Hamilton syringe (USA) by a PE-20 tubing (Fisher Scientific, Hampton, NH, USA). The infusion rate and volume were controlled through the use of the syringe pump (model PHD 22/2000, Harvard Apparatus, Cambridge, MA, USA). Following 2 min infusion, injectors were left in place for additional 3 min to allow a passive diffusion of drugs into the tissue.
(§2) Catalepsy was assessed using the bar test described with modifications. Mice were removed from home cages and their forepaws were placed on a horizontal stainless-steel rod, 0.5 cm in diameter, positioned 3.5 cm above the bench surface. […] The arbitrary cutoff time for cataleptic mice was 60 s. Hypothermia was then evaluated by measuring core body temperature with a rectal probe (Ellab Inc., Denver, CO, USA).
(§3) To determine a working range of CP 55,940 doses that induce catalepsy and hypothermia through CB1R, a dose–response curve for CP 55,940 was constructed first. Pharmacologically naïve Cnr1^−/− and wild-type littermates were injected with increasing doses of CP 55,940 (0.1, 0.3, 1, and 3 mg/kg; i.p.) at 30 min intervals. Hypothermia and catalepsy tests were performed every 30 min before ordering the next dose of CP 55,940.

CB1R [2] = molecular target: T1, CB1R; experiment: CP 55,940-induced catalepsy (bar test) in mice; assay type: in vivo; details: CP55,940 0.1–3 mg/kg i.p.
Procedure: as §1, §2, §3

CB1R [3] = molecular target: T1, CB1R; experiment: Elevated plus maze test of anxiety-related behavior; assay type: in vivo; details: 1 µg i.c.v., tested 1 h later
Procedure: as §1
Anxiety-related behavior was assessed using the elevated plus maze (EPM) test as described, with modifications. C57BL/6J mice were allowed to acclimate in their home cages for 2 h prior to the procedure. Animals received i.c.v infusion of JD5037 1 µg or vehicle and were tested in the EPM one hour later.
Mice were given 5 min to explore an elevated platform (72 cm above the floor) consisting of two opposing open and closed arms (each 30 × 5 cm) crossing each other. Illumination in the open and closed arms was 20 and 90 Lux, respectively. Mice were placed individually in the center of the platform (5 × 5 cm) facing an open arm. The behavior of each mouse was monitored by a computer-assisted video tracking system EthoVision XT (Noldus, Leesburg, VA, USA). The tested categories include total distance (cm) and average velocity (cm/s) of the run in the entire maze, cumulative duration (% of total time) spent in closed and open arms, number of entries into each closed and open arm of the maze (in-zone frequency). Arm entries were defined as crossing of the center point (located at approximately two thirds of the mouse body) into the arm. Number of entries, time spent in the open or closed arms, and distance travelled were measured by an automated HindSight software system (Hindsight, version 1.4, Hindsight Software Solutions Inc., Frisco, TX, USA).

CB1R [4] = molecular target: T1, CB1R; experiment: Drinking-in-the-dark voluntary ethanol intake (20% ethanol, 4 h); assay type: in vivo; details: for alcohol drinking after oral gavage: wild-type/C57BL/6J mice, oral gavage day 4 (rimonabant 10 mg/kg; JD5037 3 mg/kg; S-MRI-1867 3, 10 mg/kg; R-MRI-1867 10 mg/kg)
Procedure: as §1
The procedure was performed as described, with modifications. Mice were individually housed and acclimated to the room for 5–7 days before testing and randomly assigned to treatment groups. Starting 3 h into the dark cycle, water bottles were replaced with 20% ethanol in 25 × 100 mm glass tubes fitted with metal sippers, Access to the ethanol solution was limited to 4 h every day. […] Immediately after the drinking session, mice were deeply anesthetized with isoflurane. Blood was collected by traumatic avulsion of the orbital globe and kept for 10 min at room temperature in Eppendorf tubes followed by centrifugation at 3000× g for 10 min at 4 °C. Serum was collected and kept frozen in sealed vials at −80 °C until analysis.

CB1R [5] = molecular target: T1, CB1R; set-up: method as in PMID 31105045; details: cited from earlier work
CB1R [6] = molecular target: T1, CB1R; experiment: Two-bottle free-choice alcohol preference test (15% ethanol); assay type: in vivo; details: for alcohol preference and intake: daily oral gavage days 6–10 (S-MRI-1867 3, 10 mg/kg; R-MRI-1867 10 mg/kg), male C57BL/6J mice
Procedure: The procedure was performed as described, with modifications. Animals were individually housed and acclimated to the paradigm for 5–7 days by having access to two identical water bottles and handled daily to minimize the stress associated with drug testing. Animals were first subjected to a gradual increase in ethanol concentration in a drinking bottle (3%, 6%, 9%, 12%, 15%), while the other bottle contained water. The position of the bottles was changed every day, and alcohol and water bottles were replaced every 4 days. Once alcohol concentration reached 15%, animals remained on the paradigm for 10 days. Starting on day 2, mice received vehicle by oral gavage for 4 days, followed by a daily treatment with the global or peripheral CB1 antagonist (S-MRI-1867 1, 3, 10 mg/kg; R-MRI-1867 10 mg/kg,) or vehicle (control group) for another 5 days, one hour before the dark period. All animals were sacrificed for blood and tissue collection 12–16 h after treatment.

iNOS = molecular target: T2, iNOS (Mus musculus, UniProt P29477); experiment: Serum endotoxin in portal vein after acute ethanol intoxication; assay type: in vivo; details: 10 mg/kg oral gavage 30 min before 6 g/kg ethanol intragastric
T2 construct: from tissue; host or cells: living C57BL/6J mice (whole animal)
Procedure: The acute intoxication was performed on 8-week-old C57BL/6J mice as developed by, with modifications. […] The animals were fasted overnight. On the day of the experiment, they were transferred to the procedure room and allowed to acclimate to the new environment for 2 h while remaining in their home cages. Animals were divided into six treatment groups. Each mouse received S-MRI-1867 10 mg/kg or R-MRI-1867 10 mg/kg or vehicle by oral gavage, followed 6 g/kg ethanol (30% w/v) or saline by the same administration route 30 min later. Mice were anaesthetized by isoflurane 90 min later and sacrificed for blood withdrawal and tissue collection. To determine endotoxin levels, blood was drawn aseptically from the portal vein without anticoagulant and clotted for 30 min at room temperature. Samples were then centrifuged at 2000× g for 15 min at room temperature. Serum was pipetted off aseptically into new sterile vials and kept frozen at −80 °C until analysis. For the collection of tissue specimens, the entire alimentary tract was removed and cleaned from the mesentery from mice treated with S-MRI-1867 and saline. Stomach and ~5 cm segments of duodenum, jejunum, ileum, and colon were dissected out, flushed three times with 20 mL ice-cold PBS, and kept in −80 °C freezer till analysis.
Serum samples were thawed and diluted 1:5 with sterile water. […]

CB1R [7] = details: cited from earlier work
[8] = CB1R-deficient (Cnr1−/−) mice, apart from the highest dose (3 mg/kg)
[9] = wild-type mice, cumulative at 30 min intervals

SMILES: CCCCCCC(C)(C)c1ccc([C@@H]2C[C@H](O)CC[C@H]2CCCO)c(O)c1 [CP55,940]
- decrease in body temperature (hypothermia) (CB1R [1]; [8]): completely insensitive to treatment
- decrease in body temperature (hypothermia) (CB1R [1]; [9]): dose-dependent decrease in body temperature
- cataleptic behavior (CB1R [2]; [8]): completely insensitive to treatment
- cataleptic behavior (CB1R [2]; [9]): cataleptic behavior

SMILES: CC(C)[C@H](N=C(NS(=O)(=O)c1ccc(Cl)cc1)N1C[C@H](c2ccccc2)C(c2ccc(Cl)cc2)=N1)C(N)=O [JD5037]
- velocity in elevated plus maze (CB1R [3]; 5 min run, n = 6, mean ± s.e.m., vehicle 4.0 ± 0.4): 2.4 ± 0.4 cm/s
- total distance traveled in elevated plus maze (CB1R [3]; 5 min run, n = 6, mean ± s.e.m., vehicle 1189.0 ± 111.6): 740.5 ± 130.6 cm
- movement between the two closed arms (frequency) (CB1R [3]; vs vehicle): moved less frequently between the two closed arms
- open arm entries and exploration (CB1R [3]; vs vehicle): failure to enter open arms
- time spent in closed arms (CB1R [3]; vs vehicle): stayed much longer in the closed arms
- alcohol drinking after i.c.v. infusion (CB1R [4]; i.c.v. on day 4, one hour before dark period (rimonabant 2 µg; JD5037 1 µg)): ineffective in reducing alcohol drinking
- alcohol drinking after oral gavage (CB1R [4]): effectively reduced alcohol drinking
- effect on alcohol drinking in CB1R-deficient mice (CB1R [5]): did not occur in CB1R-deficient mice

SMILES: C/C(N)=N/C(=N\S(=O)(=O)c1ccc(C(F)(F)F)cc1)N1C[C@@H](c2ccccc2)C(c2ccc(Cl)cc2)=N1 [R-MRI-1867]
- alcohol drinking after oral gavage (CB1R [4]): unaffected
- alcohol preference and intake (CB1R [6]): remained unaffected
- alcohol-induced increase in plasma levels of LPS (portal serum endotoxin) (iNOS): similarly inhibited
- CB1R activity (CB1R [7]): CB1R inactive

SMILES: CC(N)=NC(=NS(=O)(=O)c1ccc(C(F)(F)F)cc1)N1C[C@H](c2ccccc2)C(c2ccc(Cl)cc2)=N1 [S-MRI-1867]
- alcohol drinking after oral gavage (CB1R [4]): inhibited alcohol consumption in a dose-dependent fashion
- alcohol preference and intake (CB1R [6]): effective in reducing alcohol preference and intake
- total liquid consumption or food intake (CB1R [6]; daily oral gavage days 6–10, S-MRI-1867 3, 10 mg/kg): without affecting
- alcohol-induced increase in plasma levels of LPS (portal serum endotoxin) (iNOS): similarly inhibited
- CB1R inhibitory potency (CB1R [7]): nanomolar
